Laboratory results published in publication PMC9234961 (Journal of Medicinal Chemistry, 2022).
Several values for one entry are separate records, joined by “and”; a condition that tells them apart may be missing. Identical values can stand only once. Like-named read-outs stand apart in the source and are kept apart here.

Experiments:
OCI-Ly1 = assay: Cell proliferation assay (14 days), OCI-Ly1
Procedure: (§2) Cells were seeded in 96-well culture plates at a density of 2500 cells/well in RPMI-1640 medium (Sigma-
(§3) Aldrich) supplemented with 10% FBS (Gibco). Compounds were initially dispensed into 96-well U-bottom
(§4) plates using an Echo 550 acoustic dispenser (Labcyte Inc.), then diluted in RPMI-1640 medium and
(§5) transferred onto the cells. Cells were treated with 8 compound concentrations in duplicate, ranging from
(§6) with compound for 14 days, with medium changes at days 3, 7 and 10 carried out as follows: fresh 96-well
(§7) cell culture plates were prepared containing 100 µl medium plus compound at the assay concentrations
(§8) (white plates were used on day 10 to optimise luminescence measurement). Assay plates containing cells
(§9) were vortexed to mix and cell density in one control well was counted using a Coulter Z2 cell counter
(§10) (Beckman Coulter). The volume of medium containing 2500 cells in the control well was calculated and this volume of cells was transferred from every well of the assay plates to the corresponding well of the fresh plates containing compound. After 14 days, CellTiter Glo reagent (Promega) was added to the medium in each well of the assay plate at a ratio of 1:2, mixed on a plate shaker, then incubated at room temperature for 10 minutes. Luminescence was measured using an Envision plate reader (Perkin Elmer) and the relative luminescence at each compound concentration, compared to DMSO alone, was calculated. GI50 were determined using a 4-parameter curve fit in Dotmatics (Bishops Stortford, UK).

VEGFR2 = VEGFR2 (Homo sapiens, UniProt P35968); assay: SAFETYScan Kinases Binding, Inhibitor
Source text: (§1) Supplement jm1c02175_si_002.xlsx, sheet "SAFETYScan" | column: RC50 (uM); Max Response

LCK = LCK (Homo sapiens, UniProt P06239); assay: SAFETYScan Kinases Binding, Inhibitor
Sequence of LCK (P06239 whole entry, species assumed): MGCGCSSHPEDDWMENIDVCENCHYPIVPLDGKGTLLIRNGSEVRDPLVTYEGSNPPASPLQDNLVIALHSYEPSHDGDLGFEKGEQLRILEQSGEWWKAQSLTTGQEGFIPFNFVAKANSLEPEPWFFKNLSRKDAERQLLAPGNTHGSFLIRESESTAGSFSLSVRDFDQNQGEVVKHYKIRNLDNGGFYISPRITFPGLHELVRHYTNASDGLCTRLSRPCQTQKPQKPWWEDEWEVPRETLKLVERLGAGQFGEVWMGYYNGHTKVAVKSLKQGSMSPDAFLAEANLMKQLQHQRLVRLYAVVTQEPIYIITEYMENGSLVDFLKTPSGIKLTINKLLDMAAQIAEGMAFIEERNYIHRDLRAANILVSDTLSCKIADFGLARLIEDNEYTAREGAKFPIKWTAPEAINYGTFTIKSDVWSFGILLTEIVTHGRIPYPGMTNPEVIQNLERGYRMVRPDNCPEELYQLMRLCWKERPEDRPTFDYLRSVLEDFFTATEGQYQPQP
Source text: as §1

ROCK1 = ROCK1 (Homo sapiens, UniProt Q13464); assay: SAFETYScan Kinases Binding, Inhibitor
Sequence of ROCK1 (Q13464 whole entry, species assumed): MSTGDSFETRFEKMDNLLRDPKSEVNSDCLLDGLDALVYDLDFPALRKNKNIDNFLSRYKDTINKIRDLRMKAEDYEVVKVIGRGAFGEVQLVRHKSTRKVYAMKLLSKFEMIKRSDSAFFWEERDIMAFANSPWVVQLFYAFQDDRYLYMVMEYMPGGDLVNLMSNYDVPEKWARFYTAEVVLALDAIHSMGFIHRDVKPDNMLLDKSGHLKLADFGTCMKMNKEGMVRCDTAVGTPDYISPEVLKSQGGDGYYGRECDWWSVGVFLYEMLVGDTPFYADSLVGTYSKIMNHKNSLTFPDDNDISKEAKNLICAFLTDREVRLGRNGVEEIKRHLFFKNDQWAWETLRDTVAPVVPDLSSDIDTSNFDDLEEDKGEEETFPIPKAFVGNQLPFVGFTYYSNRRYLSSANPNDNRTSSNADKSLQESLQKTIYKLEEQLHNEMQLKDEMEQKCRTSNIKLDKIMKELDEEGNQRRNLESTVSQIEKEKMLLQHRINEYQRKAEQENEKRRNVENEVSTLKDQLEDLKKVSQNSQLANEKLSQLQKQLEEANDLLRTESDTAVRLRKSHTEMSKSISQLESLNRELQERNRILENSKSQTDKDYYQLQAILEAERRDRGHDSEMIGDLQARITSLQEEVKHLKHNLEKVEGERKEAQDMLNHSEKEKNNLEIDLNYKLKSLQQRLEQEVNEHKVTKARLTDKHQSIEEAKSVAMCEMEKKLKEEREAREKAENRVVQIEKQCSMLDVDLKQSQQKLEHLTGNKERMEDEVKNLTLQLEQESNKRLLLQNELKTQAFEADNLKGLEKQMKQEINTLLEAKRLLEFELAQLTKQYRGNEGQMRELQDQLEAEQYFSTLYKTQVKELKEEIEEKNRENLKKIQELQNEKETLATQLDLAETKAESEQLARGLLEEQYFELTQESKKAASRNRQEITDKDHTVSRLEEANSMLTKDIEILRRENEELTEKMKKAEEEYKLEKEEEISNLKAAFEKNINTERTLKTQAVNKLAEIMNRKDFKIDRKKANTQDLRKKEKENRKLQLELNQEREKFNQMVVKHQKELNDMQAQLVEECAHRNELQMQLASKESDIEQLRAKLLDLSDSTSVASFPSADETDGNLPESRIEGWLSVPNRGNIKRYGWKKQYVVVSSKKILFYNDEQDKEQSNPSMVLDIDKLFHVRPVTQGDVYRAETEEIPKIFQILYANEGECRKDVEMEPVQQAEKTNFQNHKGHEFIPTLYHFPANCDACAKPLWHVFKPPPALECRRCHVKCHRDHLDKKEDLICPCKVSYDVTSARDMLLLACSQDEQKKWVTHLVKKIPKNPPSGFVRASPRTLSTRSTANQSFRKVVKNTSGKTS
Source text: as §1

INSR = INSR (Homo sapiens, UniProt P06213); assay: SAFETYScan Kinases Binding, Inhibitor
Sequence of INSR (P06213 28-1382, species assumed): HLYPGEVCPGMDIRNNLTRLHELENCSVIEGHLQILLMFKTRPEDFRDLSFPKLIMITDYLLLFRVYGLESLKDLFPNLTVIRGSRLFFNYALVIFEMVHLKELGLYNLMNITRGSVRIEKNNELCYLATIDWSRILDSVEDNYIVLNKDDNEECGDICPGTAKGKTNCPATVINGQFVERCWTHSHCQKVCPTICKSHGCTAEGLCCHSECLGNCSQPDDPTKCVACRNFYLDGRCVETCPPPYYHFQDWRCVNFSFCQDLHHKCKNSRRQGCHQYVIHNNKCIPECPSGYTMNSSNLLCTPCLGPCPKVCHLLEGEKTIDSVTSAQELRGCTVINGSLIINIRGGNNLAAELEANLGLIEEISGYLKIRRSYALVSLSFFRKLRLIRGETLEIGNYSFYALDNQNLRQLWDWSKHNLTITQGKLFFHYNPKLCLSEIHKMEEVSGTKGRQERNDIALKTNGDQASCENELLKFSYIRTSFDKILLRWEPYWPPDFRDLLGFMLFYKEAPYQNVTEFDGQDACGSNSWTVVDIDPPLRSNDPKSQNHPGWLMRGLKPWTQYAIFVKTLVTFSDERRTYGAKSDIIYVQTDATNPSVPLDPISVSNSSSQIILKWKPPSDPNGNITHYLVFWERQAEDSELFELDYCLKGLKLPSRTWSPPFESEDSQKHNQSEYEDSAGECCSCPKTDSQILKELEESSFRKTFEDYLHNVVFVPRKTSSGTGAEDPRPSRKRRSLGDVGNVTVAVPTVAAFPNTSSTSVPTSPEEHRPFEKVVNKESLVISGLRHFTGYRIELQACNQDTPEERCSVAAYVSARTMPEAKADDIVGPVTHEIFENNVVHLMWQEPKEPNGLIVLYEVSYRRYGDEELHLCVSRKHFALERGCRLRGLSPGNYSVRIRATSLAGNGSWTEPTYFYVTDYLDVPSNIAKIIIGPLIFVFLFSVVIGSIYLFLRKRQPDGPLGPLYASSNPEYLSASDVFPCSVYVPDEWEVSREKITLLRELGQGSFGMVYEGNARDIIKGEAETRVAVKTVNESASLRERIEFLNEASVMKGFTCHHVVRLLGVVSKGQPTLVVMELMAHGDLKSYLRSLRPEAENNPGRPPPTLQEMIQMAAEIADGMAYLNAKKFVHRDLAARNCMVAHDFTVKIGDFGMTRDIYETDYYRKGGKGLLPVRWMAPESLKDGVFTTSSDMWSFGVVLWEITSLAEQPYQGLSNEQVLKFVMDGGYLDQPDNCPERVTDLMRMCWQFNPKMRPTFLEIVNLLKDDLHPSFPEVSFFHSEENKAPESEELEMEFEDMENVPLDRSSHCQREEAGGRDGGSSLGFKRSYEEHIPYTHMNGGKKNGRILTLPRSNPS
Source text: as §1

[1] = biological target: BCL6 in OCI-Ly1 DLBCL xenograft (Homo sapiens, UniProt P41182); settings: single dose 50 mg/kg po
Procedure: weighed and dosing volumes adjusted accordingly.
7.3.2 Preparation of OCI-Ly1 xenograft model in mouse
Twenty days post injection 24 tumour-bearing mice (between 0.4 and 0.6 cm3) were selected for the study
Mice were then grouped n=3 for the following time points: 12, 16 & 24 hours
Compounds and vehicle were administered po (formulated as described in Supplementary experimental
Blood (~1 mL) was taken from anaesthetized mice, via intracardiac puncture, using a 27 gauge needle and
a syringe pre-coated with heparin (200 Units/mL), The heparinized blood was microcentrifuged for 2
minutes and ~200 uL of plasma was aspirated to a labelled tube, frozen on dry-ice and dedicated to
pharmacokinetic analysis (PK). Each tumour was excised, divided into two halves, weighed and then snap
frozen in liquid nitrogen, dedicating one half to PK analysis and the other half to pharmacodynamic analysis (PD). All frozen material was permanently stored in a -80°C freezer.
Tumours were lysed in lysis buffer (50 mM Tris-HCl, pH 7.4, 150 mM NaCl, 1% Triton X-100 (v/v), 1 mM PMSF, 1 mM activated sodium vanandate, 1 mM EDTA, phosphatase inhibitors 2 and 3 (1:50m dilution) and protease cocktail (1:100 dilution)) using reinforced homogenizing tubes containing metal beads using a Precellys 24 with cryolys cooling at 6000 rpm, 2 × 20 s (Stretton Scientific). Lysates were incubated on ice for 15 minutes, spun at 14000 rpm at 4 °C for 10 minutes and supernatants collected and aliquoted.
Samples were stored at -80 °C until use. Protein concentration was determined by diluting 1:10 with lysis buffer and measuring on Direct Detect® spectrometer according to manufacturer’s instructions.
according to manufacturer’s instructions (ProteinSimple) with multiplexing BCL6 (CST14895 at 1:150
Data was analysed using Compass for SW software. BCL6 data was normalised to GAPDH and transferred to GraphPad Prism 7.

in vitro [2] = format: in vitro ADME; settings: BALB/c; mouse plasma, rapid equilibrium dialysis; read-out: mouse (BALB\c) PPB (converted)
human BCL6 BTB domain = human BCL6 BTB domain (Homo sapiens, UniProt P41182)
HT DLBCL xenograft = assay: Efficacy study in HT DLBCL xenograft model; format: in vivo, mouse
Procedure: single treatment of vehicle.
7.3.3 Preparation of HT Cells […]
subcultured 1:4 every 3-4 days. […]
pharmacokinetic analysis (PK).
7.3.6 Tumour lysis and Wes method
Lysates were incubated on
Samples were stored at -80 °C until use.
Data was analysed using Compass for SW software. BCL6

AR = biological target: T1, AR (Homo sapiens, UniProt P10275); assay: SAFETYScan NHR Nuclear Translocation, Antagonist; format: cell-based
T1 sequence (P10275 1-920): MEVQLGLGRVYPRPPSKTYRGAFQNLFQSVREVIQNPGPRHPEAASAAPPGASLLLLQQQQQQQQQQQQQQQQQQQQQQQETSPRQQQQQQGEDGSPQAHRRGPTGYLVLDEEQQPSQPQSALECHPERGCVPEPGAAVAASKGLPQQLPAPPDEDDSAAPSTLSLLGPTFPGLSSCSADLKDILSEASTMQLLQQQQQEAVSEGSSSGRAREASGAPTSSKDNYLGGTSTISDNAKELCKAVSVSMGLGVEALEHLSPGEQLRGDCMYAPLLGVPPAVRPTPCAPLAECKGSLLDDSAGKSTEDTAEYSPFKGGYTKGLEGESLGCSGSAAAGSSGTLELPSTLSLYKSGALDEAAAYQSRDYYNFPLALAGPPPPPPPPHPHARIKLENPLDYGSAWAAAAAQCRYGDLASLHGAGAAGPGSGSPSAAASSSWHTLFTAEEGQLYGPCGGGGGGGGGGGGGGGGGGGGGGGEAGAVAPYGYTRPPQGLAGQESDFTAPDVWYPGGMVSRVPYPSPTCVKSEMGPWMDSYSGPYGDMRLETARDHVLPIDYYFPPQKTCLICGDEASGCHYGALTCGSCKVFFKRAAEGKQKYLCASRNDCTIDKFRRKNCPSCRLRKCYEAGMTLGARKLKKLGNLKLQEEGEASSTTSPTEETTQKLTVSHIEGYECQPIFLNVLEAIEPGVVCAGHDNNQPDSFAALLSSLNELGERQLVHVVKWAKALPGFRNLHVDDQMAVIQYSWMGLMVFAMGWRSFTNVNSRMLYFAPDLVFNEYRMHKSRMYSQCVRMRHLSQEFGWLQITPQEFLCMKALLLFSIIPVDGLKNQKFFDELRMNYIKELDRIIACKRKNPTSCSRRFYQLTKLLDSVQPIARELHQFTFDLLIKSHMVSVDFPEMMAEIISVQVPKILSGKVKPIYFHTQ
Source text: as §1

Karpas 422 = assay: Cell proliferation assay (14 days), Karpas 422
Procedure: as §2, §3, §4, §5, §6, §7, §8, §9, §10

SU-DHL-4 = assay: Cell proliferation assay (14 days), SU-DHL-4
Procedure: as §2, §3, §4, §5, §6, §7, §8, §9, §10

CHRM3 = CHRM3 (Homo sapiens, UniProt P20309); assay: SAFETYScan GPCR Calcium Flux, Agonist; format: cell-based
Sequence of CHRM3 (P20309 whole entry): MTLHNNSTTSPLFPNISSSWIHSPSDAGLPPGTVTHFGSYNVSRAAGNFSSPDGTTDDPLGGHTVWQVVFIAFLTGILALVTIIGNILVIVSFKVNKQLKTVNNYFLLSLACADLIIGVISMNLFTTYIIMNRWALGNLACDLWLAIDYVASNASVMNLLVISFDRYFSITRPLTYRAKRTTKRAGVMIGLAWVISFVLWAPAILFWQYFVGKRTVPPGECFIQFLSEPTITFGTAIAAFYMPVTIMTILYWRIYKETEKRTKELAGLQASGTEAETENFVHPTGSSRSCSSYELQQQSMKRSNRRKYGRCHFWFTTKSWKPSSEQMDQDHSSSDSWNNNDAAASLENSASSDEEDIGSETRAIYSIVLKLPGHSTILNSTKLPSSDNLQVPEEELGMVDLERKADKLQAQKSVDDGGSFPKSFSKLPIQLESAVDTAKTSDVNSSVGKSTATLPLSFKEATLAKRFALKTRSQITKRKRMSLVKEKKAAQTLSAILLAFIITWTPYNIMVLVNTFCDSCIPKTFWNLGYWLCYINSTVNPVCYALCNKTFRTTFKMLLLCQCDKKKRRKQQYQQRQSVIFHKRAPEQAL
Source text: as §1

CHRM1 = biological target: T2, CHRM1 (Homo sapiens, UniProt P11229); assay: SAFETYScan GPCR Calcium Flux, Agonist; format: cell-based
T2 sequence (P11229 1-460): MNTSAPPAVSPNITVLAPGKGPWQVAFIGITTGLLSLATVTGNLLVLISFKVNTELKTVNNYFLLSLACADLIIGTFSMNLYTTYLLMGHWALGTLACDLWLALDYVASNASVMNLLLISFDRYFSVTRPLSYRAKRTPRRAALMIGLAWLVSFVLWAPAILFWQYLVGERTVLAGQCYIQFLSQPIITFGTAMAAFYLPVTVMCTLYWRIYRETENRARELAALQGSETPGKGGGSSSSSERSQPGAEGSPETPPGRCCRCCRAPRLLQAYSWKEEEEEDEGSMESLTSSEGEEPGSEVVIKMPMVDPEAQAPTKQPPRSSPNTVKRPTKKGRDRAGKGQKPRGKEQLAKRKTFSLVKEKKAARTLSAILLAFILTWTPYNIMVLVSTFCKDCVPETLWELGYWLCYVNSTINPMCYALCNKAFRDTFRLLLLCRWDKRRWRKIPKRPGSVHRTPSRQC
Source text: as §1

ADORA2A = ADORA2A (Homo sapiens, UniProt P29274); assay: SAFETYScan GPCR Calcium Flux, Agonist; format: cell-based
Sequence of ADORA2A (P29274 whole entry): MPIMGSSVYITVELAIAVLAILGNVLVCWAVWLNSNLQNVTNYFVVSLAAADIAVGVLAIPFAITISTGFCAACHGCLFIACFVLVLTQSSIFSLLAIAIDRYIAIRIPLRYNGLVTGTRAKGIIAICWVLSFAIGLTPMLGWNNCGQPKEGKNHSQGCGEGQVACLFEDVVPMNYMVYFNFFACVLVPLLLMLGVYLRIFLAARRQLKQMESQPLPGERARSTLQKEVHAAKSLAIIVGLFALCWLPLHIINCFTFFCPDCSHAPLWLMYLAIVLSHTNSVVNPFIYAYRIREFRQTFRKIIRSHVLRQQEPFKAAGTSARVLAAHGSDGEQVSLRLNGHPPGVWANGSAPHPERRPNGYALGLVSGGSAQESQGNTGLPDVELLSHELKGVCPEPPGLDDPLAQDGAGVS
Source text: as §1

HRH1 = HRH1 (Homo sapiens, UniProt P35367); assay: SAFETYScan GPCR Calcium Flux, Agonist; format: cell-based
Sequence of HRH1 (P35367 whole entry): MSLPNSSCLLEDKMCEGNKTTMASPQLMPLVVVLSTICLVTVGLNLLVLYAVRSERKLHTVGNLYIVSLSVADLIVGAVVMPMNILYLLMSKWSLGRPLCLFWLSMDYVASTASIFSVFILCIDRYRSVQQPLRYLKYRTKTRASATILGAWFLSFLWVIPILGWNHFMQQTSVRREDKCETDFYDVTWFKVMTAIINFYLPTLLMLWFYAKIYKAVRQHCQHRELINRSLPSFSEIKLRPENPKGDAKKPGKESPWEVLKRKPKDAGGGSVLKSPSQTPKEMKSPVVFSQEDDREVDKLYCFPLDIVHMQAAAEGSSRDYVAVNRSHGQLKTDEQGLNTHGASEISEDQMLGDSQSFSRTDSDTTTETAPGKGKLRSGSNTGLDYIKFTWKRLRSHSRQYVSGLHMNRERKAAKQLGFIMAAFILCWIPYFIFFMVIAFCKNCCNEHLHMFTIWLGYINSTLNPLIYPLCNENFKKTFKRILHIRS
Source text: as §1

in vitro [3] = format: in vitro ADME; settings: bovine; fraction unbound in OCI-Ly1 DC50 assay medium; read-out: fu,media

SMILES: C[C@H]1C[C@@H](O)CN(c2ncc(Cl)c(Nc3ccc4c(c3)c3c(c(=O)n4C)OCC(F)(F)[C@H](C4CC4)N3)n2)C1 [12a CCT373566, (S)-10-((5-Chloro-2-((3R,5S)-3-hydroxy-5-methylpiperidin-1-yl)pyrimidin-4-yl)amino)-2-cyclopropyl-3,3-difluoro-7-methyl-1,2,3,4-tetrahydro-[1,4]oxazepino[2,3-c]quinolin-6(7H)-one]
- OCI-Ly1 GI50 (OCI-Ly1; 14-day proliferation assay): Very potent growth inhibition
- GI50 (OCI-Ly1; Homo sapiens, OCI-Ly1, 336 h, read-out: OCI-Ly1 GI50): 0.0021 µM
- Emax (VEGFR2; read-out: Max Response): 15.8%
- IC50 (VEGFR2; read-out: RC50 (IC50)): > 10 µM
- Emax (LCK; read-out: Max Response): 1.52%
- IC50 (LCK; read-out: RC50 (IC50)): > 10 µM
- Emax (ROCK1; read-out: Max Response): 14.9%
- IC50 (ROCK1; read-out: RC50 (IC50)): > 10 µM
- Emax (INSR; read-out: Max Response): 0%
- IC50 (INSR; read-out: RC50 (IC50)): > 10 µM
- adverse events ([1]; OCI-Ly1 xenograft SCID mice): No visible adverse events were observed
- tumor concentrations versus plasma concentrations ([1]; 12, 16, 24 h): lower than plasma concentrations at all time points
- BCL6 levels in tumor ([1]; 12, 16 and 24 h after dosing): significantly decreased at all time points
- fraction unbound (in vitro [2]): 0.0012
- BCL6 TR-FRET pIC50 mean (human BCL6 BTB domain; mean of replicates): 8.6638
- IC50 (human BCL6 BTB domain; read-out: BCL6 TR-FRET IC50 individual replicates, single replicate values): 2.3 nM (3×) and 2.1 nM (3×)
- T/C (HT DLBCL xenograft; 50 mg/kg BID, 22 days): 60%
- BCL6 levels after the last dose (HT DLBCL xenograft; 50 mg/kg po bid for 22 days, 4 h and 12 h after last dose): remained decreased 4 h and 12 h after the last dose
- body weight (HT DLBCL xenograft; 50 mg/kg po bid, 22 days): No body weight losses were observed
- tumor growth compared to the vehicle control group (HT DLBCL xenograft; 50 mg/kg po bid, 22 days): modest decrease in tumor growth
- Emax (AR; read-out: Max Response): 0%
- IC50 (AR; read-out: RC50 (IC50)): > 10 µM
- Karpas 422 GI50 (Karpas 422; 14-day proliferation assay): Very potent growth inhibition
- GI50 (Karpas 422; Homo sapiens, KARPAS-422, 336 h, read-out: Karpas 422 GI50): 0.0014 µM
- SU-DHL-4 GI50 (SU-DHL-4; 14-day proliferation assay): Very potent growth inhibition
- GI50 (SU-DHL-4; Homo sapiens, SU-DHL-4, 336 h, read-out: SU-DHL-4 GI50): 0.0125 µM
- Emax (CHRM3; read-out: Max Response): 3.17%
- EC50 (CHRM3; read-out: RC50 (EC50)): > 10 µM
- Emax (CHRM1; read-out: Max Response): 3.12%
- EC50 (CHRM1; read-out: RC50 (EC50)): > 10 µM
- Emax (ADORA2A; read-out: Max Response): 0%
- EC50 (ADORA2A; read-out: RC50 (EC50)): > 10 µM
- Emax (HRH1; read-out: Max Response): 1.78%
- EC50 (HRH1; read-out: RC50 (EC50)): > 10 µM
- fraction unbound (in vitro [3]): 0.13
